According to patent US10844002B2, “Lipids and lipid compositions for the delivery of active agents” (priority 2014, dated 2020):
Marks after values point to notes of the source that are not given here.

What was measured:
[1] = Encapsulation efficiency of RNA replicons (Quant-iT RiboGreen); format: physicochemical; conditions: LNP 40% cationic lipid, 10% DSPC, 48% cholesterol, 2% PEG-DMG; RNA replicon
Experimental: Briefly, lipids were dissolved in ethanol (2m1), a RNA replicon was dissolved in buffer (2 ml, 100 mM sodium citrate, pH 6) and these were mixed with 2 ml of buffer followed by 1 hour of equilibration. The mixture was then dialized overnight against 1×PBS. The resulting product contained liposomes, with ˜70-95% encapsulation efficiency.
The percentage of encapsulated RNA and RNA concentration were determined by Quant-iT RiboGreen RNA reagent kit (Invitrogen), following manufacturer's instructions. The ribosomal RNA standard provided in the kit was used to generate a standard curve. LNPs were diluted 10× or 100× in 1× TE buffer (from kit) before addition of the dye. Separately, LNPs were diluted 10× or 100× in 1× TE buffer containing 0.5% Triton X before addition of the dye (to disrupt the LNPs and thus to assay total RNA). Thereafter an equal amount of dye was added to each solution and then ˜180 μL of each solution after dye addition was loaded in duplicate into a 96 well tissue culture plate. The fluorescence (Ex 485 nm, Em 528 nm) was read on a microplate reader. All LNP formulations were dosed in vivo based on the encapsulated amount of RNA.

[2] = test system: RSV F protein; format: in vivo; conditions: Table 4, BALB/c mice, intramuscular; for Log10(IgG titer), RNA (RSV-F), 2 weeks post 2nd immunization: 100 ng dose; for Log10(IgG titer), 1 ng RNA (RSV-F), 2 weeks post 2nd immunization: 1 ng vA375 replicon in LNP, days 0 and 21
[3] = Measurement of mRNA encapsulation in lipid nanoparticles (Quant-iT Ribogreen); format: physicochemical; conditions: LNP cationic lipid/DSPC/cholesterol/stealth lipid, N:P 4:1, leptin mRNA
Experimental: All equipment and disposable supplies are certified free of RNase activity by the manufacturer or rendered RNase free by use of the RNaseZap reagent (LifeTechnologies). mRNA is encapsulated at a cationic lipid amine to mRNA phosphate (N:P) molar ratio of 4:1. Lipids (cationic lipid, DSPC, cholesterol and lipidated PEG or stealth lipid) are dissolved in ethanol. The molar ratios are 40:10:38:2, respectively. The mixture is sonicated briefly, then gently agitated for 5 minutes and then maintained at 37° C. until use. mRNA is exchanged into citrate buffer pH 5.8-6.0 by use of Amicon Ultra-15 centrifugal concentrators, and the final concentration is adjusted to 0.5 mg/ml and held at 37° C. until use. An equal volume of lipids in ethanol, mRNA in citrate buffer, and citrate buffer alone are drawn into disposable syringes. Tubing leading from syringes containing lipids and mRNA are attached to the T junction, and tubing leading from the syringe containing citrate buffer alone is paired with the tubing exiting the T-junction over a collection vessel containing a stir bar on an active stir plate. Syringes are placed in a syringe pump set to expel contents at a flow rate of 1 ml per minute.
The pump is activated, and the collected mRNA in lipid nanoparticles is transferred to SnakeSkin dialysis tubing (10,000 MWCO, Thermo Scientific). Material is dialyzed against RNAse- and pyrogen-free 1× phosphate buffered saline overnight at 4° C.
Percent encapsulation of mRNA in lipid nanoparticles is determined using the Quant-iT Ribogreen RNA Assay kit (Life Technologies). The LNP-mRNA suspension is assayed in buffer (mRNA outside the particle), and buffer plus Triton X-100 detergent (total mRNA). The difference calculated is the mRNA inside the particle. Prepare a 1000 ng/mL stock from the RNA provided in the kit and use this to generate a standard curve (0 ng/ml, 15.63-1000 ng/ml) in TE and TE+0.75% Triton X-100. Prepare LNP-mRNA samples in TE buffer and TE buffer+0.75% Triton X-100 with appropriate dilution so that reading is in the range of standard curve (400-2,000 fold). In a 384-well plate (Costar non-treated #3573) add 0.04 ml of standard (in duplicate) or sample (in triplicate) per well. Dilute Ribogreen reagent 240-fold in TE buffer and add 0.06 ml per well. Mix contents of wells and measure fluorescence (excitation=480 nm, emission=520 nm). Subtract background values (no RNA) from standard and test sample values and determine the concentrations of RNA in the samples using the standard curves. Determine the percent encapsulation of the sample by dividing the difference in concentrations between sample+triton and sample in buffer alone by the sample+triton concentration.

[4] = Characterization of LNP formulations: Z average particle diameter and polydispersity index; format: physicochemical; conditions: LNP formulation; for Zav (nm): Z average particle diameter; for polydispersity: polydispersity index
Description: The lipid nanoparticles have a size of about 1 to about 2,500 nm, about 1 to about 1,500 nm, about 1 to about 1,000 nm, in a sub-embodiment about 50 to about 600 nm, in a sub-embodiment about 50 to about 400 nm, in a sub-embodiment about 50 to about 250 nm, and in a sub-embodiment about 50 to about 150 nm. Unless indicated otherwise, all sizes referred to herein are the average sizes (diameters) of the fully formed nanoparticle, as measured by dynamic light scattering on a Malvern Zetasizer. The nanoparticle sample is diluted in phosphate buffered saline (PBS) so that the count rate is approximately 200-400 kcts. The data is presented as a weighted average of the intensity measure.

Row | SMILES | Encapsulation efficiency (RNA %) [1] | Log10(IgG titer), RNA (RSV-F), 2 weeks post 2nd immunization [2] | % encapsulation (mRNA Leptin) [3] | Log10(IgG titer), 1 ng RNA (RSV-F), 2 weeks post 2nd immunization [2] | Zav (nm) [4] | polydispersity [4]
1 | CCCCC/C=C\C/C=C\CCCCCCCCOc1ccc(OCCCCCCCC/C=C\C/C=C\CCCCC)c(COC(=O)CCN(C)C)c1 [Example 2, 2,5-bis((9Z,12Z)-octadeca-9,12-dien-1-yloxy)benzyl 3-(dimethylamino)propanoate] | 13.1% | 4.14 (100 ng dose)* |  |  |  | 
2 | CCCCC/C=C\C/C=C\CCCCCCCCOc1ccc(OCCCCCCCC/C=C\C/C=C\CCCCC)c(COC(=O)OCCCN(C)C)c1 [Example 3, 2,5-bis((9Z,12Z)-octadeca-9,12-dienyloxy)benzyl 3-(dimethylamino)propyl Carbonate] | 85.0% | 4.77 (100 ng dose)* |  |  |  | 
3 | CCCCCCCCCC(=O)OCCCCCCCCOc1ccc(OCCCCCCCCOC(=O)CCCCCCCCC)c(COC(=O)CCN(C)C)c1 [Example 5] |  |  | 59.0% |  |  | 
4 | CCCCCCCCCC(=O)OCCCCCCCCOc1ccc(OCCCCCCCCOC(=O)CCCCCCCCC)c(COC(=O)C2CCN(C)CC2)c1 [Example 6, ((2-(((1-methylpiperidine-4-carbonyl)oxy)methyl)-1,4-phenylene)bis(oxy))bis(octane-8,1-diyl) bis(decanoate)] | 71.3% |  |  | 4.25 |  | 
5 | CCCCCCCCCC(=O)OCCCCCCCCOc1ccc(OCCCCCCCCOC(=O)CCCCCCCCC)c(COC(=O)CCCN(C)C)c1 [Example 7, ((2-(((4-(dimethylamino)butanoyl)oxy)methyl)-1,4-phenylene)bis(oxy))bis(octane-8,1-diyl) bis(decanoate)] | 85.6% |  | 95.4% | 4.37 | 100.7 nm | 0.096
6 | CCCCCCCCCC(=O)OCCCCCCCCOc1ccc(OCCCCCCCCOC(=O)CCCCCCCCC)c(COC(=O)C2CCN(C(C)C)CC2)c1 [Example 9, ((2-(((1-isopropylpiperidine-4-carbonyl)oxy)methyl)-1,4-phenylene)bis(oxy))bis(octane-8,1-diyl) bis(decanoate)] | 69.1% |  |  |  | 182.6 nm | 0.369
7 | CCCCCCCCCC(=O)OCCCCCCCCOc1ccc(OCCCCCCCCOC(=O)CCCCCCCCC)c(COC(=O)OCCCN(C)C)c1 [Example 12, ((2-((((3-(dimethylamino)propoxy)carbonyl)oxy)methyl)-1,4-phenylene)bis(oxy))bis(octane-8,1-diyl) bis(decanoate)] | 89.8% |  |  | 4.40 | 97.3 nm | 0.116
8 | CCCCCCCCCC(=O)OCCCCCCCCOc1ccc(OCCCCCCCCOC(=O)CCCCCCCCC)c(COC(=O)OCCCN(CC)CC)c1 [Example 13, ((2-((((3-(diethylamino)propoxy)carbonyl)oxy)methyl)-1,4-phenylene)bis(oxy))bis(octane-8,1-diyl) bis(decanoate)] | 92.1% |  |  |  |  | 
9 | CCCCC/C=C\C/C=C\CCCCCCCCOc1cc(COC(=O)OCCCN(C)C)c(OCCCCCCCC/C=C\C/C=C\CCCCC)cc1C [Example 14, 3-(dimethylamino)propyl 4-methyl-2,5-bis((9Z,12Z)-octadeca-9,12-dien-1-yloxy)benzyl Carbonate] | 78.3% |  | 77.9% | 3.85 | 127.7 nm | 0.102
10 | CCCCC/C=C\C/C=C\CCCCCCCCOc1cc(COC(=O)OCCCCN(C)C)c(OCCCCCCCC/C=C\C/C=C\CCCCC)cc1C [Example 15, 4-(dimethylamino)butyl 4-methyl-2,5-bis((9Z,12Z)-octadeca-9,12-dienyloxy)benzyl Carbonate] | 82.6% |  |  | 2.81 | 138.8 nm | 0.210
11 | CCCCCCCCOC(CCC(=O)OCCCOc1ccc(OCCCOC(=O)CCC(OCCCCCCCC)OCCCCCCCC)c(COC(=O)CCCN(C)C)c1)OCCCCCCCC [Example 20, ((2-(((4-(Dimethylamino)butanoyl)oxy)methyl)-1,4-phenylene)bis(oxy))bis(propane-3,1-diyl) bis(4,4-bis(octyloxy)butanoate)] |  |  | 88.4% |  |  | 
12 | CCCCCCCCOC(CCC(=O)OCCCCCOc1ccc(OCCCCCOC(=O)CCC(OCCCCCCCC)OCCCCCCCC)c(COC(=O)CCCN(C)C)c1)OCCCCCCCC [Example 21, ((2-(((4-(Dimethylamino)butanoyl)oxy)methyl)-1,4-phenylene)bis(oxy))bis(pentane-5,1-diyl) bis(4,4-bis(octyloxy)butanoate)] |  |  | 79.8% |  |  | 
13 | CCCCCCCCOC(CCC(=O)OCCCCCOc1ccc(OCCCCCOC(=O)CCC(OCCCCCCCC)OCCCCCCCC)c(COC(=O)CCCN(CC)CC)c1)OCCCCCCCC [Example 22, ((2-(((4-(diethylamino)butanoyl)oxy)methyl)-1,4-phenylene)bis(oxy))bis(pentane-5,1-diyl) bis(4,4-bis(octyloxy)butanoate)] |  |  | 86.0% |  |  | 
14 | CCCCCCCCOC(CCC(=O)OCCCCCOc1ccc(OCCCCCOC(=O)CCC(OCCCCCCCC)OCCCCCCCC)c(COC(=O)C2(C)CCN(C)CC2)c1)OCCCCCCCC [Example 23, ((2-(((1,4-Dimethylpiperidine-4-carbonyl)oxy)methyl)-1,4-phenylene)bis(oxy))bis(pentane-5,1-diyl) bis(4,4-bis(octyloxy)butanoate)] |  |  | 84.3% |  |  | 
15 | CCCCCCCCCC(=O)OCCCCCCCCOc1ccc(COC(=O)C2(C)CCN(C)CC2)c(OCCCCCCCCOC(=O)CCCCCCCCC)c1 [Example 26, ((4-(((1,4-Dimethylpiperidine-4-carbonyl)oxy)methyl)-1,3-phenylene)bis(oxy))bis(octane-8,1-diyl) bis(decanoate)] |  |  | 90.8% |  |  | 
16 | CCCCCCCCCC(=O)OCCCCCCCCOc1ccc(COC(=O)CCCN(C)C)c(OCCCCCCCCOC(=O)CCCCCCCCC)c1 [Example 27, ((4-(((4-(Dimethylamino)butanoyl)oxy)methyl)-1,3-phenylene)bis(oxy))bis(octane-8,1-diyl) bis(decanoate)] |  |  | 95.2% |  |  | 
17 | CCCCCCCCCC(=O)OCCCCCCCCOc1ccc(COC(=O)CCCN(CC)CC)c(OCCCCCCCCOC(=O)CCCCCCCCC)c1 [Example 28, ((4-(((4-(Diethylamino)butanoyl)oxy)methyl)-1,3-phenylene)bis(oxy))bis(octane-8,1-diyl) bis(decanoate)] |  |  | 93.6% |  |  | 
